Results on 24 molecules are retold here after patent US9815796B2 (Merck Sharp & Dohme Corp., priority 2013, dated 2017).

human PDE2A1, sequence (O00408 other isoform, or with tags, fused parts or gaps): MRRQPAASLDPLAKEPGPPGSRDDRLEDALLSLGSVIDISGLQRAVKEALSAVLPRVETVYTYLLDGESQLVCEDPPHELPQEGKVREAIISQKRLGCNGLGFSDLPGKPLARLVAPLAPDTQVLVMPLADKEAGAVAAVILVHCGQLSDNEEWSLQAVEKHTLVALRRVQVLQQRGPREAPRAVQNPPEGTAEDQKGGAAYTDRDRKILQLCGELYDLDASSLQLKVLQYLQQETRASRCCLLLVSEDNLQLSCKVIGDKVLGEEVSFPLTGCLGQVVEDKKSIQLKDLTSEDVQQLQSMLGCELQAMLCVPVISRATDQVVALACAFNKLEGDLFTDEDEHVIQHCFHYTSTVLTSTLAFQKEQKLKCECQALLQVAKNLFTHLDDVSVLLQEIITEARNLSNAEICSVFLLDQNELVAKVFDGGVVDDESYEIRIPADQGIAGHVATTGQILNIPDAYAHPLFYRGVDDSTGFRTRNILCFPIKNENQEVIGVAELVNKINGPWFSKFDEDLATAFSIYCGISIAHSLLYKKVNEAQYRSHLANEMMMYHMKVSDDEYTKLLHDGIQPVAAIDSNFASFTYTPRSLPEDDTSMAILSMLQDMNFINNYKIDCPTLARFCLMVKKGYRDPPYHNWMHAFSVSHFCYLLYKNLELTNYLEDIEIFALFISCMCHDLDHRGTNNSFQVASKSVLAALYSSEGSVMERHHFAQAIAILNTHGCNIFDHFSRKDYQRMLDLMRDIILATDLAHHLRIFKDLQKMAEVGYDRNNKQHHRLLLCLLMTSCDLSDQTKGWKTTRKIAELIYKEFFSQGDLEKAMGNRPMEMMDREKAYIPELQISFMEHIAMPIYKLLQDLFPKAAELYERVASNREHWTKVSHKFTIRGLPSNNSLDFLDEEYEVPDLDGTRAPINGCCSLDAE

This experiment addresses human PDE2A1 (Homo sapiens (Human), UniProt O00408). The experiment is described as follows: IMAP FP PDE selectivity panel, human PDE2A1. It counts as biochemical. The conditions noted are these: Human PDE2, Lab B; read-out: Human PDE2 Ki (nM) - Lab B. As to the method: Selectivity for PDE2, as compared to other PDE families, was assessed using the IMAP® technology. Human PDE 10A2 enzyme was prepared from cytosolic fractions of transiently transfected HEK cells. All other PDE's were GST Tag human enzyme expressed in insect cells and were obtained from BPS Bioscience (San Diego, Calif.): PDE1A (Cat#60010), human PDE2A1 (Cat#60020), PDE3A (Cat#60030), PDE4A1A (Cat#60040), PDE5A1 (Cat#60050), PDE6C (Cat#60060), PDE7A (Cat#60070), PDE8A1 (Cat#60080), PDE9A2 (Cat#60090), PDE11A4 (Cat#60110).
Assays for PDE 1 through 11 were performed in parallel at room temperature in 384-well microtiter plates with an incubation volume of 20.2 μL. Solutions of test compounds were prepared in DMSO and serially diluted with DMSO to yield 30 μL of each of ten solutions differing by 3-fold in concentration, at 32 serial dilutions per plate. […] A Labcyte POD 810 (Labcyte, Sunnyvale, Calif.) was used to dispense 200 nL from each well of the titration plate to make eleven copies of the assay plate for each titration, one copy for each PDE enzyme. A solution of each enzyme (dilution from aliquots, sufficient to produce 20% substrate conversion) and a separate solution of FAM-labeled cAMP or FAM-labeled cGMP from Molecular Devices (Sunnyvale, Calif., product # R7506 or cGMP#R7508), at a final concentration of 50 nM were made in the assay buffer (10 mM Tris HCl, pH 7.2, 10 mM MgCl2, 0.05% NaN3 0.01% Tween-20, and 1 mM DTT). Note that the substrate for PDE2 is 50 nM FAM cAMP containing 1000 nM of cGMP. The enzyme and the substrate were then added to the assay plates in two consecutive additions of 10 μL and then shaken to mix. The reaction was allowed to proceed at room temperature for 60 minutes. A binding solution was then made from the kit components, comprised of 80% Solution A, 20% Solution B and binding reagent at a volume of 1/600 the total binding solution. The enzymatic reaction was stopped by addition of 60 μL of the binding solution to each well of the assay plate. The plates were sealed and shaken for 10 seconds. The plates were incubated at room temperature for one hour, then the parallel and perpendicular fluorescence was measured using a Tecan Genios Pro plate reader (Tecan, Switzerland). The apparent inhibition constants for the compounds against all 11 PDE's was determined from the parallel and perpendicular fluorescent readings as described for PDE10 FP assay using the following apparent KM values for each enzyme and substrate combination: PDE1A (FAM cGMP) 70 nM, human PDE2A1 (FAM cAMP) 10,000 nM, PDE3A (FAM cAMP) 50 nM, PDE4A1A (FAM cAMP) 1500 nM, PDE5A1 (FAM cGMP) 400 nM, PDE6C (FAM cGMP) 700 nM, PDE7A (FAM cAMP) 150 nM, PDE8A1 (FAM cAMP) 50 nM, PDE9A2 (FAM cGMP) 60 nM, PDE10A2 (FAM cAMP) 150 nM, PDE11A4 (FAM cAMP) 1000 nM. The intrinsic PDE2 inhibitory activity of a compound which may be used in accordance with the present invention may be determined by these assays.
Usually Ki stands for the dissociation constant of the complex between target and ligand, obtained from inhibition or displacement. For `CCc1nc(C(=O)N[C@](C)(CO)c2ccc(C(F)(F)F)cc2Cl)cc(=O)[nH]1` [Example 639, N-{(1S)-1-[2-chloro-4-(trifluoromethyl)phenyl]-2-hydroxy-1-methylethyl}-2-ethyl-6-oxo-1,6-dihydropyrimidine-4-carboxamide], the inhibitory constant (Ki) was 2 nM. The figure for `O=C(N[C@@H](c1ccc2c(c1)OC(F)(F)O2)C1CC1)c1cc(=O)[nH]c(-c2ncccn2)n1` [Example 591, N-[(R)-cyclopropyl(2,2-difluoro-1,3-benzodioxol-5-yl)methyl]-6-oxo-1,6-dihydro-2,2′-bipyrimidine-4-carboxamide] is 30 nM; for `CC(C)(C)[C@@H](NC(=O)c1cc(=O)[nH]c(-c2ncccn2)n1)c1ccc(SC(F)(F)F)cc1` [Example 555, N-[(1R)-2,2-dimethyl-1-{4-[(trifluoromethyl)sulfanyl]phenyl}propyl]-6-oxo-1,6-dihydro-2,2′-bipyrimidine-4-carboxamide] it is 4.5 nM; for `Cc1nc(C(=O)NC2(c3ccc4c(c3)OC(F)(F)O4)CC2)cc(=O)[nH]1` [Example 534, N-[1-(2,2-difluoro-1,3-benzodioxol-5-yl)cyclopropyl]-2-methyl-6-oxo-1,6-dihydropyrimidine-4-carboxamide] it is 87 nM. With `Cc1nc(C(=O)NC2(c3ccc(C(F)(F)F)cc3F)CC2)cc(=O)[nH]1` [Example 625, N-{1-[2-fluoro-4-(trifluoromethyl)phenyl]cyclopropyl}-2-methyl-6-oxo-1,6-dihydropyrimidine-4-carboxamide], the inhibition constant (Ki) was 51 nM. As for `CC(NC(=O)c1cc(=O)[nH]c(-c2ccccc2)n1)c1ccc(C(C)(C)C(F)(F)F)cc1` (single isomer, unassigned) [Example 698, (S)- or (R)-6-oxo-2-phenyl-N-(1-(4-(1,1,1-trifluoro-2-methylpropan-2-yl)phenyl)ethyl)-1,6-dihydropyrimidine-4-carboxamide], the Ki was > 2960 nM. Then `CCC(C)(NC(=O)c1cc(=O)[nH]c(C)n1)c1ccc(C(F)(F)F)cc1F` (single isomer, unassigned) [Example 718, (S)- or (R)-N-(2-(2-fluoro-4-(trifluoromethyl)phenyl)butan-2-yl)-2-methyl-6-oxo-1,6-dihydropyrimidine-4-carboxamide], with 39 nM. Then `O=C(NC1(c2ccc3c(c2)OC(F)(F)O3)CC1)c1cc(=O)[nH]c(-c2ncccn2)n1` [Example 571, N-[1-(2,2-difluoro-1,3-benzodioxol-5-yl)cyclopropyl]-6-oxo-1,6-dihydro-2,2′-bipyrimidine-4-carboxamide], with 71 nM. The figure for `CC1([C@@H](NC(=O)c2cc(=O)[nH]c(-c3ncccn3)n2)c2ccc(OC(F)F)cc2)CC1` [Example 584, N-[(R)-[4-(difluoromethoxy)phenyl](1-methylcyclopropyl)methyl]-6-oxo-1,6-dihydro-2,2′-bipyrimidine-4-carboxamide] is 36 nM; for `CC(C)C(C)(NC(=O)c1cc(=O)[nH]c(-c2ncccn2)n1)c1ccc(S(F)(F)(F)(F)F)cc1` (stereo not drawn) [Example 561, N-{1,2-dimethyl-1-[4-(pentafluoro-λ^6-sulfanyl)phenyl]propyl}-6-oxo-1,6-dihydro-2,2′-bipyrimidine-4-carboxamide] it is 202 nM; for `CC(NC(=O)c1cc(=O)[nH]c(-c2ncccn2)n1)c1ccc(C2(C(F)(F)F)CC2)cc1` (single isomer, unassigned) [Example 692, (S)- or (R)-6-oxo-2-(pyrimidin-2-yl)-N-(1-(4-(1-(trifluoromethyl)cyclopropyl)phenyl)-ethyl)-1,6-dihydropyrimidine-4-carboxamide] it is > 2960 nM.

Take `Cc1cc(C(F)(F)F)ccc1C(C)(C)NC(=O)c1cc(=O)[nH]c(-c2ncccn2)n1` [Example 569, N-{1-methyl-1-[2-methyl-4-(trifluoromethyl)phenyl]ethyl}-6-oxo-1,6-dihydro-2,2′-bipyrimidine-4-carboxamide]: the inhibition constant (Ki) worked out at 139 nM. The figure for `CC1(c2ccc(C(NC(=O)c3cc(=O)[nH]c(-c4ncccn4)n3)C(C)(C)C)cc2F)CC1` (single isomer, unassigned) [Example 716, (S)- or (R)-N-(1-(3-fluoro-4-(1-methylcyclopropyl)phenyl)-2,2-dimethylpropyl)-6-oxo-1,6-dihydro-[2,2′-bipyrimidine]-4-carboxamide] is > 2960 nM; for `CC(C)[C@@H](NC(=O)c1cc(=O)[nH]c(-c2ncccn2)n1)c1ccc(C2CC2)c(F)c1` [Example 560, N-[(1R)-1-(4-cyclopropyl-3-fluorophenyl)-2-methylpropyl]-6-oxo-1,6-dihydro-2,2′-bipyrimidine-4-carboxamide] it is 5.1 nM; for `CC(C)(NC(=O)c1cc(=O)[nH]c(-c2ncccn2)n1)c1ccc(C(F)(F)F)cc1Cl` [Example 568, N-{1-[2-chloro-4-(trifluoromethyl)phenyl]-1-methylethyl}-6-oxo-1,6-dihydro-2,2′-bipyrimidine-4-carboxamide] it is 96 nM. Then `C[C@](CO)(NC(=O)c1cc(=O)[nH]c(-c2ccccc2)n1)c1ccc(C(F)(F)F)cc1Cl` [Example 643, N-{(1S)-1-[2-chloro-4-(trifluoromethyl)phenyl]-2-hydroxy-1-methylethyl}-6-oxo-2-phenyl-1,6-dihydropyrimidine-4-carboxamide], with 0.5 nM. The figure for `Cc1nc(C(=O)NC(C)(C)c2ccc(C(F)(F)F)cc2C)cc(=O)[nH]1` [Example 595, 2-methyl-N-{1-methyl-1-[2-methyl-4-(trifluoromethyl)phenyl]ethyl}-6-oxo-1,6-dihydropyrimidine-4-carboxamide] is 37 nM; for `Cc1nc(C(=O)N[C@@H](c2ccc(C(F)F)c(F)c2)C2CC2)cc(=O)[nH]1` [Example 651, N-{(R)-cyclopropyl[4-(difluoromethyl)-3-fluorophenyl]methyl}-2-methyl-6-oxo-1,6-dihydropyrimidine-4-carboxamide] it is 109 nM.

`CC[C@@H](NC(=O)c1cc(=O)[nH]c(C)n1)c1ccc(C(F)F)cc1` [Example 652, N-{(1R)-1-[4-(difluoromethyl)phenyl]propyl}-2-methyl-6-oxo-1,6-dihydropyrimidine-4-carboxamide]: the Ki was 138 nM. The figure for `CC(NC(=O)c1cc(=O)[nH]c(-c2ncccn2)n1)c1ccc(C(C)(C)C(F)(F)F)cc1` (single isomer, unassigned) [Example 701, (R)- or (S)-6-oxo-N-(1-(4-(1,1,1-trifluoro-2-methylpropan-2-yl)phenyl)ethyl)-1,6-dihydro-[2,2′-bipyrimidine]-4-carboxamide] is 127 nM. Then `CC(C)c1ccc([C@H](NC(=O)c2cc(=O)[nH]c(-c3ncccn3)n2)C2(C)CC2)cc1` [Example 562, N-{(R)-(1-methylcyclopropyl)[4-(1-methylethyl)phenyl]methyl}-6-oxo-1,6-dihydro-2,2′-bipyrimidine-4-carboxamide], with 4.3 nM; and `CC1([C@@H](NC(=O)c2cc(=O)[nH]c(-c3ccccc3)n2)c2ccc(OC(F)F)cc2)CC1` [Example 548, N-[(R)-[4-(difluoromethoxy)phenyl](1-methylcyclopropyl)methyl]-6-oxo-2-phenyl-1,6-dihydropyrimidine-4-carboxamide], with 4.5 nM. Then `Cc1nc(C(=O)NC2(c3ccc(C(F)F)c(F)c3)CC2)cc(=O)[nH]1` [Example 655, N-{l-[4-(difluoromethyl)-3-fluorophenyl]cyclopropyl}-2-methyl-6-oxo-1,6-dihydropyrimidine-4-carboxamide], with 64 nM; and `Cc1nc(C(=O)N[C@H](C)c2ccc(C(F)F)c(F)c2)cc(=O)[nH]1` [Example 657, N-{(1R)-1-[4-(difluoromethyl)-3-fluorophenyl]ethyl}-2-methyl-6-oxo-1,6-dihydropyrimidine-4-carboxamide], with 133 nM.
